Assay results: patent US20230292746A1, “MIXTURES AND COMPOSITIONS COMPRISING 5-FLUORO-4-IMINO-3- METHYL-1-TOSYL-3,4-DIHYDROPYRIMIDIN-2-ONE, AND METHODS OF USE THEREOF” (Adama Makhteshim Ltd., priority 2020, published 2023)
Where “and” joins values, the source holds several entries; their conditions need not be identical. Identical values can stand only once.

Legend:
[1] = Storage stability: concentration / degradation of compound of Formula I in composition; assay type: physicochemical; settings: for 2W/54° C. analysis (% of 10° C.): non-aqueous composition, 2 weeks at 54° C.
From the text: As used herein, the term “stable” when used in connection with chemical stability, e.g. chemically stable, means that the composition meets the chemical stability standards set forth by the Food and Agriculture Organization of the United Nations (FAO) in the Manual on Development and Use of FAO and WHO Specification for Pesticides (First Edition—Third Revision) (the “FAO/WHO Manual”) (available at http://www.fao.org/agriculture/crops/thematic-sitemap/theme/pests/jmps/manual/en/), the entire content of which is hereby incorporate by reference into the subject application. […] The amount of degradation permitted before the degradation is considered to be significant depends on the concentration of the active ingredients in the composition.
The physical and chemical stability of composition of Example 1 were tested under various conditions including CIPAC conditions.

[2] = tested on: Zymoseptoria tritici strain Mg Tri-R6; test: Fungicidal efficacy on treated wheat leaves inoculated with Z. tritici (AUDPC, intensity of infection); assay type: in vivo; settings: 21 dpi
Procedure: Wheat crop (Winter wheat plants cv. Alixan (Limagrain) at the BBCH 12 growth stage) was treated with compositions comprising the compound of Formula I and adjuvants in different concentrations as built-in composition and/or as tank mix application.
All the tested compositions and mixtures were prepared in a volume of water corresponding to 200 L/ha and used 3 hours after preparation.
The SC composition of Example 1 was mixed with Trycol® (0.2 or 0.4 L per hectare) or Silwet (0.01 L per hectare) which were added as tank mix in 200 L volume of water.
The compositions and mixtures were applied with a hand sprayer at operating pressure of 2 bars. Three replicates (pots) of 6 wheat plants each were used for each condition tested.
After treatment, wheat plants were left to dry at room temperature for 1 hour and then incubated in a climatic chamber: Temperature of 24° C. day/18° C. night—Photoperiod of 16 h light/8 h dark and a Relative Humidity of 65%.
Fragments of the first leaf are cut and transferred in Petri dish containing adapted water agar (6 leaf fragments per Petri dish). Fragments are inoculated with a calibrated pycnospores suspension of Z. tritici strain Mg Tri-R6. […]
After incubation time of 21 days, the intensity of the infection, which is the surface of colonized leaf by Z. tritici strain, is assessed (quantitative criteria). The fungicidal efficacy on each composition is then determined in percent of the untreated control. […]
Disease assessments were carried out 21 days post inoculation (dpi) by measuring the length of the necrosis of the leaf fragment. The intensity of infection was then determined in percent of the total length of the leaf fragment.
The efficacy was calculated based on the Area Under the Disease Progress Curve (AUDPC) which is a quantitative measure of disease intensity over time. […]
The fungicide efficacies were determined from the AUDPC values and expressed in percent of the untreated control.

[3] = Water content of composition; assay type: physicochemical; settings: non-aqueous composition
From the text: As used herein, the term “water content” when used in connection with a composition, a mixture, or a component in the composition or mixture refers to the amount of free water in the composition, mixture or component of the composition or mixture and the water molecules chemically bound to another compound, such as water molecules in a hydrate.

[4] = 20% Hydrate and 80% Form I Polymorph
[5] = 45% Hydrate, and 55% Form I Polymorph

| Structure (SMILES) | degradation of the compound of Formula I ([1]; 8 weeks of storage at 40° C., with Attagel 50 (0.5%) and Bentone SD-1 (0.5%)) [%] | degradation of the compound of Formula I ([1]; 8 weeks of storage at 40° C., without Attagel 50 and Bentone SD-1) | degradation of the compound of Formula I ([1]; non-aqueous composition with water scavenger) [%] | degradation of the compound of Formula I ([1]; non-aqueous composition without water scavenger) | fungicidal efficacy compared to application without adjuvant ([2]; SC composition tank mixed with Silwet® (0.01 L/ha), wheat cv. Alixan) | fungicidal efficacy compared to application without adjuvant ([2]; SC composition tank mixed with Trycol® (0.2 or 0.4 L/ha), wheat cv. Alixan) | fungicidal efficacy compared to application without adjuvant ([2]; two adjuvants: Silwet® or Agnique® BP 420 with PVP or VP/VA, 10 g a.i./ha) | % Water Content [3, 4] | % Water Content [3, 5] [%] | 2W/54° C. analysis (% of 10° C.) [1, 4] | 2W/54° C. analysis (% of 10° C.) [1, 5] |
| --- | --- | --- | --- | --- | --- | --- | --- | --- | --- | --- | --- |
| Cc1ccc(S(=O)(=O)n2cc(F)c(=N)n(C)c2=O)cc1 [compound of Formula I, 5-fluoro-4-imino-3-methyl-1-tosyl-3,4-dihydropyrimidin-2(1H)-one] | 4 | 7-8% | ≤ 5 | 5-10% | increased the efficacy and the effective fungicidal activity | increased the efficacy and the effective fungicidal activity | increased the efficacy and the effective fungicidal activity | – | – | – | – |
| Cc1ccc(S(=O)(=O)n2cc(F)c(=N)n(C)c2=O)cc1 [Hydrate I, 5-fluoro-4-imino-3-methyl-1-tosyl-3,4-dihydropyrimidin-2(1H)-one] | – | – | – | – | – | – | – | 0.24% and 0.22% | 0.35 | 88.5 % of 10 °C and 88.7 % of 10 °C | 89.3 % of 10 °C and 88.6 % of 10 °C |
